# Legend:
# [1] = system: T1, polD (heterodimer of polD-S and polD-L); assay: [α-32P]-dCTP incorporation into primed M13mp18, acid precipitation; format: biochemical, Thermococcus sp. 9°N; conditions: 10 nM enzyme, 15 nM primed M13mp18, 50 µM dNTPs, ThermoPol buffer pH 8.8 (2 mM MgSO4), 65 °C, 20 min; read-out: not inhibited by up to 0.4 mM
# T1 construct: gene polC; E. coli T7 Express/pRIL, untagged, co-expressed plasmids pERE1 and pERF5, co-purified heterodimer; with DNA polymerase II small subunit
# [2] = target: T2, polB (9°Nm DNA polymerase; 9°N/E143D) (Thermococcus sp. 9oN-7, UniProt Q56366, E143D); assay: as above; format: biochemical
# T2 construct: gene pol; commercial recombinant 9°Nm DNA polymerase (New England Biolabs), E143D variant in exonuclease domain; single subunit
# T2 sequence (Q56366 1-775 E143D): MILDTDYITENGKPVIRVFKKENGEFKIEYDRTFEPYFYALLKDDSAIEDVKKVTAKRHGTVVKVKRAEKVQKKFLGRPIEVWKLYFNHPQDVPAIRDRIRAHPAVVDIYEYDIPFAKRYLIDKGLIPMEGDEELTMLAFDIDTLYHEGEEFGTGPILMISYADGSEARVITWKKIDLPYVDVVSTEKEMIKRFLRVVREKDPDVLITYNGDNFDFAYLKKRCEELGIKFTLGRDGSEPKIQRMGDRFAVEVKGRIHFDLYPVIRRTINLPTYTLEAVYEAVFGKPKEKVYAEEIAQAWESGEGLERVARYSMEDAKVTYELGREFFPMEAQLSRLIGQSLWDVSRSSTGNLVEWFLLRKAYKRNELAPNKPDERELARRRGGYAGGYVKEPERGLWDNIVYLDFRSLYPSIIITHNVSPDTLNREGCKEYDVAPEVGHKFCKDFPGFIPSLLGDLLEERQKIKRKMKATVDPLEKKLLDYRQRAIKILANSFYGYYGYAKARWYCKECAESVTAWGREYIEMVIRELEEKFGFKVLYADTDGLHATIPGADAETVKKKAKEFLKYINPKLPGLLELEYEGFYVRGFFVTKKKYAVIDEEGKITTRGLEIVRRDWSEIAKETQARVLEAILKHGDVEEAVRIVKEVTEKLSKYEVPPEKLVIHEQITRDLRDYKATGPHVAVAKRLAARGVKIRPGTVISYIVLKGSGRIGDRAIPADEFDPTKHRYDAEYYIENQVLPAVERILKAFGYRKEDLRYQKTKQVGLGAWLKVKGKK
smiles,measurement,setting,value
C[C@@]1(CO)[C@H](O)CC[C@@]2(C)[C@H]1CC[C@H]1C[C@@H]3C[C@@]12CC[C@]3(O)CO [aphidicolin],IC50,[1],> 400 µM
same,IC50,[2],300 µM
